The record followed here is the supplement of paper PMC10307832.

Assay in all cases: relative viability (nuclei count vs DMSO), 5 days (fraction); higher = more cells survive
Compound in experiment [1]: CN[C@@H]1C[C@H]2O[C@@](C)([C@@H]1OC)n1c3ccccc3c3c4c(c5c6ccccc6n2c5c31)C(=O)NC4 [Staurosporine] + Nc1ncn([C@H]2C[C@H](O)[C@@H](CO)O2)c(=O)n1 [Decitabine] (partner 2 µM)
In short, it runs like this:
(§1)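 Lung cancer cell lines in 1536-well plates were dosed by pin tool the day after seeding, either with one drug alone or with a fixed anchor-drug dose plus five library-drug doses (not always all listed) in √10 steps. After 5 days, cells were fixed and their nuclei stained in one step (final 0.05% Triton X-100, 1% formaldehyde, 1 ug/ml Hoechst), then counted on 4× images. Relative viability is the nuclei count in treated wells divided by that in vehicle wells. Values are medians of duplicate plates.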

Compound in experiment [2]: O=c1[nH]cc(F)c(=O)[nH]1 [5-Fluorouracil] + CC(C)C[C@H](NC(=O)[C@H](Cc1ccccc1)NC(=O)c1cnccn1)B(O)O [Bortezomib] (partner 0.002 µM)
In short, it runs like this: as §1

Compound in experiment [3]: CN[C@@H]1C[C@H]2O[C@@](C)([C@@H]1OC)n1c3ccccc3c3c4c(c5c6ccccc6n2c5c31)C(=O)NC4 [Staurosporine] + O=C(CCCCCCC(=O)Nc1ccccc1)NO [Vorinostat] (partner 1 µM)
In a few lines:
as §1

Compound in the experiment “Sulindac + Luminespib”: CC1=C(CC(=O)O)c2cc(F)ccc2/C1=C\c1ccc([S+](C)[O-])cc1 [Sulindac] + CCNC(=O)c1noc(-c2cc(C(C)C)c(O)cc2O)c1-c1ccc(CN2CCOCC2)cc1 [Luminespib] (partner 0.01 µM)
In short, it runs like this: as §1

Turning to NCI-H2405, the relative viability in experiment [1] (first compound 0.005 µM) was 0.516; in experiment [1] (first compound 0.01581 µM) it was 0.161; in experiment [1] (first compound 0.05 µM) it was 0.119; in experiment [1] (first compound 0.1581 µM), 0.107; in experiment [1] (first compound 0.5 µM), 0.0998; in experiment [2] (first compound 0.02 µM) it was 0.943. The relative viability in experiment [2] (first compound 0.2 µM) is 1.02; in experiment [2] (first compound 0.6325 µM), 0.96; in experiment [2] (first compound 2 µM), 0.681; in experiment [3] (first compound 0.005 µM), 0.199; in experiment [3] (first compound 0.01581 µM), 0.147; in experiment [3] (first compound 0.05 µM) it was 0.131. Also, the relative viability in experiment [3] (first compound 0.1581 µM) is 0.0894; in experiment [3] (first compound 0.5 µM), 0.0973; with Sulindac + Luminespib (first compound 0.08 µM) it was 0.455; in the experiment with Sulindac + Luminespib (first compound 0.253 µM), 0.647; with Sulindac + Luminespib (first compound 0.8 µM) it was 0.686; in the experiment with Sulindac + Luminespib (first compound 2.53 µM) it was 0.752. Also, the relative viability in the experiment with Sulindac + Luminespib (first compound 8 µM) was 0.754.

Turning to NCI-H3122, the relative viability came out at 0.541 in experiment [1] (first compound 0.005 µM); 0.602 in experiment [1] (first compound 0.05 µM); 0.329 in experiment [1] (first compound 0.5 µM); 0.998 in experiment [2] (first compound 0.02 µM); 0.897 in experiment [2] (first compound 0.2 µM); 0.353 in experiment [2] (first compound 0.6325 µM). The relative viability stood at 0.298 in experiment [2] (first compound 2 µM); 1.04 in experiment [3] (first compound 0.005 µM); 0.549 in experiment [3] (first compound 0.05 µM); 0.131 in experiment [3] (first compound 0.5 µM); 0.136 in the experiment with Sulindac + Luminespib (first compound 0.08 µM); 0.0774 with Sulindac + Luminespib (first compound 0.253 µM). Further, the figures for the relative viability in the experiment with Sulindac + Luminespib (first compound 0.8 µM), with Sulindac + Luminespib (first compound 2.53 µM) and in the experiment with Sulindac + Luminespib (first compound 8 µM) were 0.0891, 0.0935 and 0.105, respectively.

PC-3 [JPC-3]: the relative viability in experiment [1] (first compound 0.005 µM) amounted to 0.883; in experiment [1] (first compound 0.01581 µM), 0.586; in experiment [1] (first compound 0.05 µM), 0.55; in experiment [1] (first compound 0.1581 µM), 0.422; in experiment [1] (first compound 0.5 µM) it was 0.349; in experiment [2] (first compound 0.02 µM), 0.841. The relative viability in experiment [2] (first compound 0.2 µM) was 0.84; in experiment [2] (first compound 0.6325 µM) it was 0.762; in experiment [2] (first compound 2 µM), 0.643; in experiment [3] (first compound 0.005 µM) it was 0.351; in experiment [3] (first compound 0.01581 µM), 0.306; in experiment [3] (first compound 0.05 µM), 0.396. Also, the relative viability in experiment [3] (first compound 0.1581 µM) amounted to 0.297; in experiment [3] (first compound 0.5 µM), 0.376; with Sulindac + Luminespib (first compound 0.08 µM), 0.663; in the experiment with Sulindac + Luminespib (first compound 0.253 µM), 0.799; in the experiment with Sulindac + Luminespib (first compound 0.8 µM), 0.528; with Sulindac + Luminespib (first compound 2.53 µM), 0.656. The relative viability with Sulindac + Luminespib (first compound 8 µM) stood at 0.771.

Regarding PC-14, the relative viability in experiment [1] (first compound 0.005 µM) was determined as 0.22; in experiment [1] (first compound 0.01581 µM), 0.137; in experiment [1] (first compound 0.05 µM), 0.0771; in experiment [1] (first compound 0.1581 µM) it was 0.0491; in experiment [1] (first compound 0.5 µM), 0.0544; in experiment [2] (first compound 0.02 µM), 0.876. Moreover, the relative viability in experiment [2] (first compound 0.2 µM) was 0.897; in experiment [2] (first compound 0.6325 µM), 0.818; in experiment [2] (first compound 2 µM), 0.516; in experiment [3] (first compound 0.005 µM) it was 0.267; in experiment [3] (first compound 0.01581 µM), 0.116; in experiment [3] (first compound 0.05 µM), 0.0757. The relative viability turned out to be 0.047 in experiment [3] (first compound 0.1581 µM); 0.0287 in experiment [3] (first compound 0.5 µM); 0.164 with Sulindac + Luminespib (first compound 0.08 µM); 0.152 with Sulindac + Luminespib (first compound 0.253 µM); 0.15 with Sulindac + Luminespib (first compound 0.8 µM); 0.152 in the experiment with Sulindac + Luminespib (first compound 2.53 µM). For the same cell line, the relative viability with Sulindac + Luminespib (first compound 8 µM) was determined as 0.127.

As for RERF-LC-KJ, the relative viability in experiment [1] (first compound 0.005 µM) was found to be 0.647; in experiment [1] (first compound 0.01581 µM), 0.397; in experiment [1] (first compound 0.05 µM), 0.275; in experiment [1] (first compound 0.1581 µM), 0.23; in experiment [1] (first compound 0.5 µM) it was 0.201; in experiment [2] (first compound 0.02 µM), 1.24. Moreover, the relative viability in experiment [2] (first compound 0.2 µM) amounted to 1.17; in experiment [2] (first compound 0.6325 µM), 1.14; in experiment [2] (first compound 2 µM), 0.939; in experiment [3] (first compound 0.005 µM), 0.599; in experiment [3] (first compound 0.01581 µM), 0.403; in experiment [3] (first compound 0.05 µM), 0.302. Further, the relative viability in experiment [3] (first compound 0.1581 µM) came out at 0.197; in experiment [3] (first compound 0.5 µM), 0.224; in the experiment with Sulindac + Luminespib (first compound 0.08 µM) it was 1.06; in the experiment with Sulindac + Luminespib (first compound 0.253 µM), 1.47; with Sulindac + Luminespib (first compound 0.8 µM), 1.18; with Sulindac + Luminespib (first compound 2.53 µM), 1.23. Moreover, the relative viability in the experiment with Sulindac + Luminespib (first compound 8 µM) stood at 1.64.

Turning to SK-LU-1, the relative viability in experiment [1] (first compound 0.005 µM) is 0.331; in experiment [1] (first compound 0.01581 µM), 0.232; in experiment [1] (first compound 0.05 µM), 0.212; in experiment [1] (first compound 0.1581 µM) it was 0.229; in experiment [1] (first compound 0.5 µM), 0.154; in experiment [2] (first compound 0.02 µM), 1.12. The relative viability in experiment [2] (first compound 0.2 µM) stood at 1.34; in experiment [2] (first compound 0.6325 µM), 1.18; in experiment [2] (first compound 2 µM), 0.981; in experiment [3] (first compound 0.005 µM), 0.265; in experiment [3] (first compound 0.01581 µM), 0.206; in experiment [3] (first compound 0.05 µM) it was 0.179. Also, the relative viability turned out to be 0.164 in experiment [3] (first compound 0.1581 µM); 0.148 in experiment [3] (first compound 0.5 µM); 0.193 with Sulindac + Luminespib (first compound 0.08 µM); 0.204 in the experiment with Sulindac + Luminespib (first compound 0.253 µM); 0.175 in the experiment with Sulindac + Luminespib (first compound 0.8 µM); 0.202 in the experiment with Sulindac + Luminespib (first compound 2.53 µM). Besides, in the experiment with Sulindac + Luminespib (first compound 8 µM), the relative viability stood at 0.215.

Turning to SW 1573, the relative viability in experiment [1] (first compound 0.005 µM) amounted to 0.227; in experiment [1] (first compound 0.01581 µM), 0.15; in experiment [1] (first compound 0.05 µM), 0.135; in experiment [1] (first compound 0.1581 µM), 0.0749; in experiment [1] (first compound 0.5 µM), 0.067; in experiment [2] (first compound 0.02 µM), 1.08. Moreover, the relative viability in experiment [2] (first compound 0.2 µM) was 1.1; in experiment [2] (first compound 0.6325 µM), 0.922; in experiment [2] (first compound 2 µM), 0.638; in experiment [3] (first compound 0.005 µM), 0.811; in experiment [3] (first compound 0.01581 µM), 0.391; in experiment [3] (first compound 0.05 µM) it was 0.152. The relative viability in experiment [3] (first compound 0.1581 µM) amounted to 0.0813; in experiment [3] (first compound 0.5 µM), 0.0557; in the experiment with Sulindac + Luminespib (first compound 0.08 µM), 0.197; with Sulindac + Luminespib (first compound 0.253 µM) it was 0.25; with Sulindac + Luminespib (first compound 0.8 µM), 0.242; with Sulindac + Luminespib (first compound 2.53 µM) it was 0.293. Moreover, in the experiment with Sulindac + Luminespib (first compound 8 µM), the relative viability was 0.284.
